Key:
Format in all cases: cell-based
[1] = system: Enterococcus faecalis (EFA); assay: MIC, two-fold agar dilution (CLSI), clinical isolates
Excerpt: (§1) 1. The invention adopts the two-fold agar dilution method recommended by the operating procedure of antimicrobial susceptibility testing set by American Clinical and Laboratory Standards Institute (CLSI) to determine the Minimum Inhibitory Concentration (MIC) of the test samples against the tested strains.

[2] = system: Enterococcus faecium (EFM); assay: as above
Excerpt: as §1

[3] = system: Escherichia coli (including ESBLs, non-ESBLs); assay: as above
Excerpt: as §1

[4] = system: Moraxella catarrhalis (BCA); assay: as above
Excerpt: as §1

[5] = system: Streptococcus pneoumoniae (SPN); assay: as above
Excerpt: as §1

[6] = system: methicillin-resistant Staphylococcus aureus (MRSA); assay: as above
Excerpt: as §1

[7] = system: methicillin-resistant Staphylococcus epidermidis (MRSE); assay: as above
Excerpt: as §1

[8] = system: methicillin-sensitive Staphylococcus aureus (MSSA); assay: as above
Excerpt: as §1

[9] = system: methicillin-sensitive Staphylococcus epidermidis (MSSE); assay: as above
Excerpt: as §1

[10] = system: HCT-116 colorectal cancer cell line; assay: CCK-8 proliferation inhibition; settings: Homo sapiens, HCT-116, 72 h, concentration of 30 μM; 72 hours; CCK-8; read-out: HCT116 inhibition rate/%
Method: (1) HCT-116 colorectal cancer cell line, A549 lung cancer cell line, MGC-803 gastric cancer cell line, BEL-7402 liver cancer cell line, Jurkat T cell leukemia cell line, HL60 acute myeloid leukemia cell line, Hela cervical cancer cell line, MCF-7 breast cancer cell line, PC3 prostate cancer cell line and SAOS-2 osteosarcoma cell line were made into single cell suspension, 180 μL of which was inoculated into 96-well culture plate, which was cultured overnight in CO2 incubator (37° C., 5% CO2, 95% air).
(2) Each of the spiro three-membered ring, spiro five membered ring peptide deformylase inhibitors was dissolved in DMSO, and was further formulated into drug solution with required different final concentration using corresponding cell culture medium. The drug solutions were added to the above cells respectively (20 μL/well), with the control group added with 1‰ DMSO, and cultured in a CO2 incubator for 72 hours.
(3) After incubation for 72 hours, the culture solution was decanted, and 100 μL of 1:10 diluted CCK-8 solution was added.
Wherein, in step (1), the concentration of the single cell suspension was 2000 cells/well.
Wherein, in step (2), HCT-116 cells were cultured in McCoy's 5A medium (containing 10% newborn bovine serum, 1% double antibody); A549 and PC3 cells were cultured in F12 medium (containing 10% newborn bovine serum, 1% double antibody); MGC-803, BEL-7402, SAOS-2, Jurkat and HL60 cells were cultured in 1640 medium (containing 10% newborn bovine serum, 1% double antibody); and MCF-7 and Hela cells were cultured in DMEM high glucose medium (containing 10% newborn bovine serum, 1% double antibody).

CCCC[C@H](CN(O)C=O)C(=O)N1CC2(CC2)C[C@H]1C(=O)Nc1nc(C)cs1 [Example 19]
6%: inhibition at 30 µM [10]
8 µg/mL: MIC (anti-bacterial activity) ([1]; strain EFA 15-1) | MIC (anti-bacterial activity) ([1]; strain EFA 15-2) | MIC (anti-bacterial activity) ([1]; strain EFA 15-3) | MIC (anti-bacterial activity) ([1]; strain EFA 15-4) | MIC (anti-bacterial activity) ([1]; strain EFA 15-5) | MIC (anti-bacterial activity) ([1]; strain EFA 15-6) | MIC (anti-bacterial activity) ([1]; strain EFA 15-9) | MIC (anti-bacterial activity) ([2]; strain EFM 15-1)
32 µg/mL: MIC (anti-bacterial activity) ([3]; strain ECO+ 15-1)
0.5 µg/mL: MIC (anti-bacterial activity) ([4]; strain BCA 14-6)
0.03 µg/mL: MIC (anti-bacterial activity) ([6]; strain MRSA 15-3) | MIC (anti-bacterial activity) ([8]; strain MSSA 15-5) | MIC (anti-bacterial activity) ([9]; strain MSSE 15-5)
0.015 µg/mL: MIC (anti-bacterial activity) ([9]; strain MSSE 15-6)
2 µg/mL: MIC (anti-bacterial activity) ([2]; strain EFM 15-4) | MIC (anti-bacterial activity) ([2]; strain EFM 15-6)
> 32 µg/mL: MIC (anti-bacterial activity) ([3]; strain ECO+ 15-2) | MIC (anti-bacterial activity) ([3]; strain ECO+ 15-3) | MIC (anti-bacterial activity) ([3]; strain ECO+ 15-4) | MIC (anti-bacterial activity) ([3]; strain ECO− 15-1) | MIC (anti-bacterial activity) ([3]; strain ECO− 15-2) | MIC (anti-bacterial activity) ([3]; strain ECO− 15-3) | MIC (anti-bacterial activity) ([3]; strain ECO− 15-4)
0.125 µg/mL: MIC (anti-bacterial activity) ([4]; strain BCA 14-5) | MIC (anti-bacterial activity) ([4]; strain BCA 14-10) | MIC (anti-bacterial activity) ([6]; strain MRSA 15-1) | MIC (anti-bacterial activity) ([6]; strain MRSA 15-2) | MIC (anti-bacterial activity) ([7]; strain MRSE 15-2) | MIC (anti-bacterial activity) ([7]; strain MRSE 15-3) | MIC (anti-bacterial activity) ([7]; strain MRSE 15-7) | MIC (anti-bacterial activity) ([8]; strain MSSA 15-3) | MIC (anti-bacterial activity) ([8]; strain MSSA 15-4) | MIC (anti-bacterial activity) ([9]; strain MSSE 15-3) | MIC (anti-bacterial activity) ([9]; strain MSSE 15-4)
0.25 µg/mL: MIC (anti-bacterial activity) ([2]; strain EFM 15-3) | MIC (anti-bacterial activity) ([2]; strain EFM 15-5) | MIC (anti-bacterial activity) ([4]; strain BCA 14-7) | MIC (anti-bacterial activity) ([4]; strain BCA 14-8) | MIC (anti-bacterial activity) ([5]; strain SPN 16-4) | MIC (anti-bacterial activity) ([6]; strain MRSA 15-4) | MIC (anti-bacterial activity) ([8]; strain MSSA 15-6)
0.06 µg/mL: MIC (anti-bacterial activity) ([7]; strain MRSE 15-1)
4 µg/mL: MIC (anti-bacterial activity) ([2]; strain EFM 15-2) | MIC (anti-bacterial activity) ([5]; strain SPN 16-2)
1 µg/mL: MIC (anti-bacterial activity) ([4]; strain BCA 14-1) | MIC (anti-bacterial activity) ([4]; strain BCA 14-4)

CCCC[C@H](CN(O)C=O)C(=O)N1CC2(CC2)C[C@H]1C(=O)Nc1cc(C)on1 [Example 21, (S)-5-((R)-2-((N-hydroxyformamido)methyl)hexanoyl)-N-(5-methylisoxazol-3yl)-5-spiro[2.4]heptane-6-carboxamide]
1 µg/mL: MIC (anti-bacterial activity) ([1]; strain EFA 15-3) | MIC (anti-bacterial activity) ([2]; strain EFM 15-2) | MIC (anti-bacterial activity) ([2]; strain EFM 15-4)
32 µg/mL: MIC (anti-bacterial activity) ([3]; strain ECO+ 15-1) | MIC (anti-bacterial activity) ([3]; strain ECO+ 15-2)
0.03 µg/mL: MIC (anti-bacterial activity) ([9]; strain MSSE 15-5) | MIC (anti-bacterial activity) ([9]; strain MSSE 15-6)
64 µg/mL: MIC (anti-bacterial activity) ([3]; strain ECO+ 15-3) | MIC (anti-bacterial activity) ([3]; strain ECO+ 15-4) | MIC (anti-bacterial activity) ([3]; strain ECO− 15-1) | MIC (anti-bacterial activity) ([3]; strain ECO− 15-2) | MIC (anti-bacterial activity) ([3]; strain ECO− 15-3) | MIC (anti-bacterial activity) ([3]; strain ECO− 15-4)
2 µg/mL: MIC (anti-bacterial activity) ([2]; strain EFM 15-6)
0.25 µg/mL: MIC (anti-bacterial activity) ([6]; strain MRSA 15-1) | MIC (anti-bacterial activity) ([7]; strain MRSE 15-1) | MIC (anti-bacterial activity) ([7]; strain MRSE 15-2) | MIC (anti-bacterial activity) ([7]; strain MRSE 15-3) | MIC (anti-bacterial activity) ([7]; strain MRSE 15-7) | MIC (anti-bacterial activity) ([8]; strain MSSA 15-4) | MIC (anti-bacterial activity) ([8]; strain MSSA 15-5) | MIC (anti-bacterial activity) ([9]; strain MSSE 15-4)
8%: inhibition at 30 µM [10]
4 µg/mL: MIC (anti-bacterial activity) ([1]; strain EFA 15-6) | MIC (anti-bacterial activity) ([1]; strain EFA 15-9) | MIC (anti-bacterial activity) ([5]; strain SPN 16-2)
16 µg/mL: MIC (anti-bacterial activity) ([1]; strain EFA 15-1) | MIC (anti-bacterial activity) ([1]; strain EFA 15-2) | MIC (anti-bacterial activity) ([1]; strain EFA 15-4) | MIC (anti-bacterial activity) ([1]; strain EFA 15-5)
0.5 µg/mL: MIC (anti-bacterial activity) ([2]; strain EFM 15-1) | MIC (anti-bacterial activity) ([2]; strain EFM 15-3) | MIC (anti-bacterial activity) ([2]; strain EFM 15-5) | MIC (anti-bacterial activity) ([4]; strain BCA 14-1) | MIC (anti-bacterial activity) ([4]; strain BCA 14-4) | MIC (anti-bacterial activity) ([4]; strain BCA 14-5) | MIC (anti-bacterial activity) ([4]; strain BCA 14-6) | MIC (anti-bacterial activity) ([4]; strain BCA 14-7) | MIC (anti-bacterial activity) ([4]; strain BCA 14-8) | MIC (anti-bacterial activity) ([4]; strain BCA 14-10) | MIC (anti-bacterial activity) ([5]; strain SPN 16-4) | MIC (anti-bacterial activity) ([6]; strain MRSA 15-2) | MIC (anti-bacterial activity) ([6]; strain MRSA 15-3) | MIC (anti-bacterial activity) ([6]; strain MRSA 15-4) | MIC (anti-bacterial activity) ([8]; strain MSSA 15-3) | MIC (anti-bacterial activity) ([8]; strain MSSA 15-6) | MIC (anti-bacterial activity) ([9]; strain MSSE 15-3)

— patent US10738028B2, “Spiro three-membered ring, spiro five-membered ring peptide deformylase inhibitor and use thereof in antibacteria and anti-tumor” (priority 2016, dated 2020)
